This note sets out measurements from publication PMC4167698, “Fatty Acid Esters of Phloridzin Induce Apoptosis of Human Liver Cancer Cells through Altered Gene Expression” (PLoS ONE, 2014).

One data set has as its system rat hepatocytes (RTCP10). Briefly: MTS cell viability assay, rat hepatocytes. The class given is cell-based. As to conditions: 100 µM, 24 h. The protocol:
Cell viability was determined by using the MTS assay. In brief, HepG2 cells (5×10^3 cells/100 µL/well), MDA-MB-231 (5×10^3 cells/100 µL/well), THP-1 (25×10^3/100 µL/well), normal human and rat hepatocytes (1×10^4 cells/100 µL/well) were plated in triplicate, in a 96 well sterile flat bottom tissue culture plates. […] Thereby, cells were exposed to various concentrations (0.1, 1, 10, 25, 50, 75, 100 µM) of each treatment. Controls consist of cells with media containing DMSO (<0.5%), test blank wells contained the test compound in media with no cells and blank wells contained media with no cells. After additional 3, 6, 12, 18 or 24 h, 20 µL of the MTS reagent in combination with the electron coupling agent, phenazine methosulfate were added to the wells and cells were incubated in a humidified incubator for 3 h. Absorbance at 490 nm (OD490) was measured by using a Flurostar Optima microplate reader (BMG Labtech, Cary, NC, USA) to obtain the number of viable cells relative to the control population. Percentage of viability of the test compound treated cells are expressed as percentage compared to control (<0.5% DMSO). […] The selective index (SI) of the fatty acid esters of phloridzin is defined as the ratio of cytotoxicity (EC50 values) on normal HP-F cells to solid cancer HepG2, MDA-MB-231 cells (SI = EC50 on HP-F cells/EC50 on solid cancer cells). […]

Data set [1] has as its system caspase 3 activity of HepG2 cells. Briefly: Caspase-3 colorimetric activity assay. In kind it is cell-based, human. Conditions: HepG2, 100 µM, 24 h, compared to DMSO control. The protocol:
The activity of caspase 3 enzyme was measured using caspase 3 colorimetric assay kit purchased from Sigma-Aldrich. […] Cells were lysed and the protein content of cell lysate was quantified by the BCA protein assay (Thermo Fisher Scientific Inc., Ottawa, ON, Canada). Caspase-3 activity was measured in the 200 µg of cell lysate using the caspase-specific peptide substrate, DEVD (Asp-Glu-Val-Asp), conjugated to reporter p-nitroanaline (ρ-NA) molecules.

For data set [2], the system named is HepG2 cells. Briefly: Mitochondrial membrane potential (JC-1). Conditions: HepG2, 100 µM, 24 h. In kind it is cell-based, human. The protocol: HepG2 cells were seeded in a black walled clear bottom 96-well sterile flat bottom tissue culture plates (BD Biosciences, USA) at a density of 5×10^4 cells/well (100 µL) and incubated in a CO2 incubator for 24 h at 37°C. […] The staining solution JC-1 was prepared with PBS and 5 µM was added to each well. The cells were further incubated in a CO2 incubator at 37°C for 1 h. After washing the plate with PBS twice, the fluorescence was measured using a Fluostar Optima microplate reader (BMG Labtech) at 535 nm for JC-1 monomers and at 590 nm for JC-1 aggregates.

The test system of data set [3] is HepG2 cells. Briefly: MTS cell proliferation assay, HepG2. In kind it is cell-based, human. Conditions: Homo sapiens, MTS. The protocol:
(§1) Cell viability was determined by using the MTS assay. In brief, HepG2 cells (5×10^3 cells/100 µL/well), MDA-MB-231 (5×10^3 cells/100 µL/well), THP-1 (25×10^3/100 µL/well), normal human and rat hepatocytes (1×10^4 cells/100 µL/well) were plated in triplicate, in a 96 well sterile flat bottom tissue culture plates. […] Thereby, cells were exposed to various concentrations (0.1, 1, 10, 25, 50, 75, 100 µM) of each treatment. Controls consist of cells with media containing DMSO (<0.5%), test blank wells contained the test compound in media with no cells and blank wells contained media with no cells. After additional 3, 6, 12, 18 or 24 h, 20 µL of the MTS reagent in combination with the electron coupling agent, phenazine methosulfate were added to the wells and cells were incubated in a humidified incubator for 3 h. Absorbance at 490 nm (OD490) was measured by using a Flurostar Optima microplate reader (BMG Labtech, Cary, NC, USA) to obtain the number of viable cells relative to the control population. Percentage of viability of the test compound treated cells are expressed as percentage compared to control (<0.5% DMSO). […] The selective index (SI) of the fatty acid esters of phloridzin is defined as the ratio of cytotoxicity (EC50 values) on normal HP-F cells to solid cancer HepG2, MDA-MB-231 cells (SI = EC50 on HP-F cells/EC50 on solid cancer cells). Samples with SI values greater than three were considered to have high selectivity towards cancer cells.
A general note: Formazan colour is commonly taken as a measure of viable cells.

For data set [4], the system named is normal human hepatocytes (HP-F). The experiment in a line: MTS cell viability assay, normal human hepatocytes. In kind it is cell-based. As to conditions: Hepatocyte, 24 h. The protocol:
as §1

For data set [5], the system named is HepG2 cells. Briefly: DNA fragmentation (apoptotic DNA ladder). Conditions: HepG2, 100 µM, 24 h, agarose gel. In kind it is cell-based, human. The protocol:
HepG2 (1×10^5) cells were seeded in 24-well culture plates and were allowed to adhere overnight. […] The plates were re-incubated for another 24 h. DNA fragmentation was detected using ApoTarget Quick Apoptotic DNA Ladder Detection Kit (Invitrogen, Burlington, ON, Canada) according to the manufacturer’s protocol. The principle involves detecting the internucleosomal DNA fragments formed during apoptosis. Briefly, floating dead cells and trypsinized adherent cells were collected and centrifuged at 1,000 rpm for 10 min. After washing with diluted phosphate buffered saline, the cells were lysed with 35 µL TE lysis buffer (a kit component). To the lysate, 5 µL of Enzyme A (a kit component) was added and incubated at 37°C for 10 min. Afterwards, 5 µL of Enzyme B (a kit component) was added, gently mixed and incubated at 50°C for 30 min. The DNA was precipitated with the ammonium acetate and absolute ethanol at −20°C. After centrifugation (10 min at 12,000 rpm) and air drying, the DNA pellet was dissolved in 30 µL of DNA suspension buffer. For detecting the DNA ladder, the extracted DNA samples were run on a 1.2% agarose gel containing 0.5 µg/mL gel red in Tris-Borate-EDTA (TBE) buffer. After electrophoresis, the gel image was captured using Gel Doc 100 system (Bio-Rad, Mississauga, ON, Canada).

In data set [6] the test system is HepG2 cells. Briefly: Morphologic observation under inverted phase contrast microscope. The class given is cell-based, human. Conditions: HepG2, 100 µM, 24 h. The protocol: After 24 h of treatment, the morphology of HepG2 cells was observed under an inverted phase contrast microscope (Nikon Eclipse E 100, Nikon, Mississauga, ON, Canada) and were captured at 400X magnification using Infinity digital microscopy camera (Lumenera corporation, Ottawa, ON, Canada).

Another data set concerns the target T1, human DNA topo IIα (Homo sapiens, UniProt P11388).
T1 construct: purchased TopoGEN, Inc., Columbus, OH, USA
The experiment in a line: Topoisomerase IIα catalytic activity (pHOT1 DNA relaxation). The class given is biochemical. As to conditions: 100 µM, 4 units enzyme, 37°C 30 min. The protocol:
The topo IIα catalytic activity was monitored via electrophoresis using topoisomerase II drug screening kit (TopoGEN, Inc., Columbus, OH, USA). Briefly, 20 µL of reaction mixtures contained 0.5 M Tris-HCl, pH 8.0, 1.5 M NaCl, 100 mM MgCl2, 20 mM ATP, 300 µg BSA/mL and 5 mM dithiothreitol. Supercoiled DNA (pHOT1 DNA), supercoiled provided in the kit was determined to be ideal for this assay because it is small and easy to handle and has a large number of topo IIα recognition elements. […] The reaction was terminated by adding 2 µL of 10% sodium dodecyl sulfate (SDS) followed by digestion with 2 µL of proteinase K (50 µg/mL) at 37°C for 15 min to degrade enzyme. After adding 2 µL of loading buffer (0.25% bromophenol blue and 50% glycerol) was added to the mixture, samples were loaded onto 1% agarose gel. Electrophoresis was conducted at 66 V (2 V/cm) for 5 h in TBE buffer using Biorad Electrophoretic Gel System (Bio-Rad, Hercules, CA, USA). Supercoiled DNA (pHOT1 DNA) and relaxed DNA were included in the electrophoresis run as markers for DNA topology. Gels were then stained in 0.5 µg/mL gel red in TBE for 30 min and destained for 15 min in distilled water prior to digital image acquisition using Gel Doc 100 system (Bio-Rad, Hercules, CA, USA).
One unit of topoisomerase II activity was defined as the minimum amount of enzyme required to achieve complete relaxation of […] superhelical pHOT1 DNA in 30 min at 37°C. […] The percent of inhibition was calculated by the following formula: [drawing 1] Where Scontrol is the percent of supercoiled DNA in the control lane (without enzyme and test compounds), S0 is the percent of supercoiled DNA in the lane without test compounds and S is the percent of supercoiled DNA in the lane with test compounds and enzyme.

T1 sequence (P11388 whole entry): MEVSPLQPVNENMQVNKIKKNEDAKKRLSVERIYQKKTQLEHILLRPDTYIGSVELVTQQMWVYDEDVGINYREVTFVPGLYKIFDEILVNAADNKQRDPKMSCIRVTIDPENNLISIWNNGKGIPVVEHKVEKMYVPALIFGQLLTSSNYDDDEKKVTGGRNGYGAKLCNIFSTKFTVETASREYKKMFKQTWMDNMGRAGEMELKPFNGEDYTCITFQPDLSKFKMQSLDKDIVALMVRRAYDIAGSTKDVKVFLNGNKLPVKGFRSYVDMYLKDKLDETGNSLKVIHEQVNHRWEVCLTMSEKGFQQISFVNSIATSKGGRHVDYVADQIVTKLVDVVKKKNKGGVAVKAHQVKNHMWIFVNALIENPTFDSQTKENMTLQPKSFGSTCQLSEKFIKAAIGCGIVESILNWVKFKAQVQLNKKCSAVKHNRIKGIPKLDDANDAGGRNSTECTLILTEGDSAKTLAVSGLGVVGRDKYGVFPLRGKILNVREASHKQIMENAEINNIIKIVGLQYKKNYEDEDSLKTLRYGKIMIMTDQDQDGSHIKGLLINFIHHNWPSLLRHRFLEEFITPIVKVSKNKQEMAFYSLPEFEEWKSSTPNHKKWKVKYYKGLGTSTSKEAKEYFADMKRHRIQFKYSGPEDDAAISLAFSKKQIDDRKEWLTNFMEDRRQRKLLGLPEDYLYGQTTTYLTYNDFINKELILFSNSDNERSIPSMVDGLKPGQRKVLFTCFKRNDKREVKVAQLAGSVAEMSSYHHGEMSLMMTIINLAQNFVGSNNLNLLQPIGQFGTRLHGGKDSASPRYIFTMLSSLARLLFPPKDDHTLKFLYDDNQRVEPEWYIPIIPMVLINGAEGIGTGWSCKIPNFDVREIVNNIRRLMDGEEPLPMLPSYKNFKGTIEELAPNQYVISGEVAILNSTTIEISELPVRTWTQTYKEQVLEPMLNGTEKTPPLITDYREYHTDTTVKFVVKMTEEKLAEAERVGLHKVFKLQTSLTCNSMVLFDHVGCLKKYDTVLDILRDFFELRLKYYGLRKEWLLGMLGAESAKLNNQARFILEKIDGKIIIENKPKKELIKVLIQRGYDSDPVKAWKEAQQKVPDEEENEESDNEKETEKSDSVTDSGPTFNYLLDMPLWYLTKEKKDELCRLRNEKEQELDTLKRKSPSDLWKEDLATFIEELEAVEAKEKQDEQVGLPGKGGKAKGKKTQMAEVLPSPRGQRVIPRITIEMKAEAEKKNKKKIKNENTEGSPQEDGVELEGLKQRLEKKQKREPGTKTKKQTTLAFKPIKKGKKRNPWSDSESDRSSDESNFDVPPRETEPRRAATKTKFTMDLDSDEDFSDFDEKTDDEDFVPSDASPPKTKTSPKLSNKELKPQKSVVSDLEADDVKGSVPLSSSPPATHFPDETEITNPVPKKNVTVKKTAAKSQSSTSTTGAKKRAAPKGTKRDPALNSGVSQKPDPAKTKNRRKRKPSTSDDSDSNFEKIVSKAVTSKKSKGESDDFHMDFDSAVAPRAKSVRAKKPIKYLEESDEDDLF

On to `CCCCCCCCCCCCCCCCCC(=O)OC[C@H]1O[C@@H](Oc2cc(O)cc(O)c2C(=O)CCc2ccc(O)cc2)[C@H](O)[C@@H](O)[C@@H]1O` [Pz-Stearic acid ester, stearic acid ester of Pz], for which the “viability of rat hepatocytes” value in the data set on rat hepatocytes (RTCP10) is given as “about 50%”.
By EC50 is commonly meant the concentration at which the effect is half-maximal. Regarding `CNC(=O)c1cc(Oc2ccc(NC(=O)Nc3ccc(Cl)c(C(F)(F)F)c3)cc2)ccn1` [Sorafenib, sorafenib], the “caspase 3 activity” value in data set [1] was “significant (P<0.001) increase”. The mitochondrial membrane potential entry with HepG2 cells [2] is listed as “significant (P<0.05) reduction”. The EC50 was 67.5 ± 5.2 µM in the data set on HepG2 cells [3] (HepG2, 3 h); 46.7 ± 3.5 µM with HepG2 cells [3] (HepG2, 6 h); 17.3 ± 0.8 µM with HepG2 cells [3] (HepG2, 12 h); 13.4 ± 0.9 µM in the data set with HepG2 cells [3] (HepG2, 18 h); 10.7 ± 0.5 µM with HepG2 cells [3] (HepG2, 24 h); greater than 100 µM in data set [4]. Besides, the “internucleosomal DNA fragmentation” value with HepG2 cells [5] is “clear DNA ladders”. Also, the apoptotic morphological changes result in the data set with HepG2 cells [6] is reported as “morphological changes which are characteristic to apoptosis”. Moreover, the “catalytic activity of human DNA topo IIα (pHOT DNA relaxation)” value at human DNA topo IIα is listed as “inhibited catalytic activity”.
